Assay: Brain microdialysis, free brain and plasma concentration-time profiles
Type: in vivo
Details: male, Wistar, sc, rat, 30 µmol/kg s.c., read-out: Cu,br/Cu,pl in microdialysis
Method: Adult male Wistar rats (280–350 g; Harlan, Horst, The Netherlands) were used for the experiments.
Rats were anesthetized using isoflurane 2% and O2. Before the surgery, Fynadine (1 mg/kg s.c.) was administered for analgesia during surgery and recovery. A mixture of Marcaine and adrenaline was used for local anesthesia on the head. Implantation of a microdialysis probe into the brain and a catheter into the right jugular vein was performed in the same surgical procedure. After surgery animals were housed individually (cages 30×30×40 cm), food and water was ad libitum available. Surgery was carried out at least 24 hours before the start of the experiments.
Each animal was placed into a stereotaxic frame (Kopf instruments, USA). A non-metal guide cannula with a MetaQuant probe (MQ 6/4, regenerated cellulose membrane, 4 mm exposed surface, Brainlink, The Netherlands) was implanted with in the prefrontal cortex (PFC), its tip at the following coordinates: AP = 3.4 mm (to bregma), lateral 0.8 mm (to midline), ventral −5.0 mm (to dura) with Toothbar set at −3.3 mm, according to the atlas of Paxinos and Watson (1982). […]
To test whether probe recoveries were sufficiently high to enable quantitative measurements of brain extracellular concentrations in the in vivo microdialysis experiments, each of the compounds was subjected to an in vitro recovery test. […]

Kp at 30 min (at 30 min): 0.04
Kp at 240 min (at 240 min): 1.71
SMILES: CN1CCN(C2=Nc3cc(Cl)ccc3Nc3ccccc32)CC1 [Clozapine]
